Reference: US6812036B2 (priority 2000, dated 2004)

Tested on: Antibody #1
Type: binding, mice

## CC(=O)OC[C@]12[C@H](O)C(=O)C(C)=C[C@H]1O[C@@H]1[C@H](O)C[C@@]2(C)[C@]12CO2 [15-acetyl-deoxynivalenol]
  cross-reactivity: 358%

## CC(=O)OC[C@]12C[C@H](OC(=O)CC(C)C)C(C)=C[C@H]1O[C@@H]1[C@H](O)[C@@H](O)[C@@]2(C)[C@]12CO2 [HT-2 toxin]
  cross-reactivity: 9%
